Legend:
[1] = Safety analysis: drug-related treatment-emergent adverse events (TEAE) in three phase I studies; assay type: in vivo, human
Experimental: For a detailed safety analysis for emodepside, based on the entire safety population (pharmacokinetic sample and placebo arms) of the phase I clinical trials the reader is referred to the recently published article by Gillon et al.. In the present study, the safety analysis and exposure–adverse events analysis was performed on all subjects whom were included in the population pharmacokinetic analysis (n = 142), i.e. all subjects who received at least 1 dose of the study drug as LSF solution, ASD-tablet A or ASD-tablet B. Safety was assessed in terms of incidence of a drug-related TEAE (as assessed by the investigator) and reported as Medical Dictionary for Regulatory Activities (MedDRA) code. A TEAE was defined as an event that emerged during treatment and having been absent pretreatment, or that worsened relative to the pretreatment state.

[2] = Linear regression of DBS vs. plasma concentrations; set-up: species or system human; conditions: DBS concentration = slope × plasma concentration-0.592; r^2 = 0.987, n = 228
Text: Deuterated emodepside-D16 was used as the internal standard.
Supplementary file pntd.0010219.s008.tif: S1 Fig Linear regression analysis (emodepside DBS vs. plasma concentrations). Observations are represented by black open circles, the black solid line represents the line of identity, and the black dotted line represents the linear regression. DBS concentration = 0.605 × plasma concentration-0.592 (r^2 = 0.987, standard error of estimate, SEE = 5.74, n = 228). (TIF) Click here for additional data file.

[3] = human, in vivo, po; cited from earlier work
Text: Currently, emodepside is under clinical development for the treatment of onchocerciasis, following a repurposing strategy and a collaboration agreement between DNDi and Bayer AG [26]. The safety, pharmacokinetics and relative bioavailability of emodepside after oral dosing in healthy male subjects have been evaluated in three phase I clinical trials, including a First-in-Human study. […] The long terminal half-life (> 20 d ...

CYP3A4 = conditions: has been shown; no reference given; cited from earlier work
[4] = Population pharmacokinetic model (NONMEM) of pooled phase I plasma and DBS concentrations
[5] = inter-compartmental clearance, oral, 75 kg adult, n = 142
[6] = nonparametric bootstrap, 75 kg adult

Compound: CC(C)C[C@H]1C(=O)O[C@H](Cc2ccc(N3CCOCC3)cc2)C(=O)N(C)[C@@H](CC(C)C)C(=O)O[C@H](C)C(=O)N(C)[C@@H](CC(C)C)C(=O)O[C@H](Cc2ccc(N3CCOCC3)cc2)C(=O)N(C)[C@@H](CC(C)C)C(=O)O[C@H](C)C(=O)N1C [emodepside, Emodepside]
- Time to resolution of drug-related TEAEs of interest after onset ([1]; all apart from visual impairment in one subject): ≤ 48 h
- Nature and severity of drug-related TEAEs ([1]; all, apart from moderate headaches in two subjects at 40 mg LSF solution): transient in nature and mild in severity
- Lag of drug-related TEAE of interest relative to Tmax, most subjects ([1]; in vivo): 0 to 2.5 h
- Share of drug-related TEAEs of interest occurring at 1–3 h post-dose ([1]; in vivo): 83%
- Time to resolution of visual impairment in one subject ([1]; in vivo): 21 days
- Deaths or severe drug-related TEAEs ([1]; n = 142): no deaths or severe drug-related TEAEs reported
- Subjects with drug-related TEAEs of interest, % ([1]; n = 142): 19.0%
- Abdominal pain, % of subjects with drug-related TEAE ([1]; n = 142, pooled phase I): 0.7%
- Balance disorder, % of subjects with drug-related TEAE ([1]; n = 142, pooled phase I): 0.7%
- Cough, % of subjects with drug-related TEAE ([1]; n = 142, pooled phase I): 0.7%
- Disorientation, % of subjects with drug-related TEAE ([1]; n = 142, pooled phase I): 0.7%
- Disturbance in attention, % of subjects with drug-related TEAE ([1]; n = 142, pooled phase I): 0.7%
- Euphoric mood, % of subjects with drug-related TEAE ([1]; n = 142, pooled phase I): 1.4%
- Eye disorders, % of subjects with drug-related TEAE ([1]; n = 142, pooled phase I): 14.1%
- Eye pain, % of subjects with drug-related TEAE ([1]; n = 142, pooled phase I): 0.7%
- Feeling of relaxation, % of subjects with drug-related TEAE ([1]; n = 142, pooled phase I): 2.1%
- Gastrointestinal disorders, % of subjects with drug-related TEAE ([1]; n = 142, pooled phase I): 2.8%
- General disorders and administration site conditions, % of subjects with drug-related TEAE ([1]; n = 142, pooled phase I): 0.7%
- Headache, % of subjects with drug-related TEAE ([1]; n = 142, pooled phase I): 4.2%
- Hypervigilance, % of subjects with drug-related TEAE ([1]; n = 142, pooled phase I): 0.7%
- Muscle spasms, % of subjects with drug-related TEAE ([1]; n = 142, pooled phase I): 0.7%
- Musculoskeletal and connective tissue disorders, % of subjects with drug-related TEAE ([1]; n = 142, pooled phase I): 0.7%
- Nausea, % of subjects with drug-related TEAE ([1]; n = 142, pooled phase I): 2.1%
- Nervous system disorders, % of subjects with drug-related TEAE ([1]; n = 142, pooled phase I): 12.7%
- Nervousness, % of subjects with drug-related TEAE ([1]; n = 142, pooled phase I): 0.7%
- Oropharyngeal pain, % of subjects with drug-related TEAE ([1]; n = 142, pooled phase I): 0.7%
- Paraesthesia oral, % of subjects with drug-related TEAE ([1]; n = 142, pooled phase I): 0.7%
- Photophobia, % of subjects with drug-related TEAE ([1]; n = 142, pooled phase I): 1.4%
- Photopsia, % of subjects with drug-related TEAE ([1]; n = 142, pooled phase I): 0.7%
- Pigmentation disorder, % of subjects with drug-related TEAE ([1]; n = 142, pooled phase I): 0.7%
- Psychiatric disorders, % of subjects with drug-related TEAE ([1]; n = 142, pooled phase I): 1.4%
- Respiratory, thoracic and mediastinal disorders, % of subjects with drug-related TEAE ([1]; n = 142, pooled phase I): 0.7%
- Sensation of foreign body, % of subjects with drug-related TEAE ([1]; n = 142, pooled phase I): 0.7%
- Skin and subcutaneous tissue disorders, % of subjects with drug-related TEAE ([1]; n = 142, pooled phase I): 0.7%
- Somnolence, % of subjects with drug-related TEAE ([1]; n = 142, pooled phase I): 0.7%
- Vision blurred, % of subjects with drug-related TEAE ([1]; n = 142, pooled phase I): 4.9%
- Visual acuity reduced, % of subjects with drug-related TEAE ([1]; n = 142, pooled phase I): 0.7%
- Visual impairment, % of subjects with drug-related TEAE ([1]; n = 142, pooled phase I): 9.2%
- Vomiting, % of subjects with drug-related TEAE ([1]; n = 142, pooled phase I): 0.7%
- Subjects with drug-related TEAEs, % ([1]; n = 142, pooled phase I, oral 1–40 mg): 21.8%
- Abdominal pain, subjects experiencing drug-related TEAE ([1]; of n = 142, pooled phase I): 1
- Balance disorder, subjects experiencing drug-related TEAE ([1]; of n = 142, pooled phase I): 1
- Cough, subjects experiencing drug-related TEAE ([1]; of n = 142, pooled phase I): 1
- Disorientation, subjects experiencing drug-related TEAE ([1]; of n = 142, pooled phase I): 1
- Disturbance in attention, subjects experiencing drug-related TEAE ([1]; of n = 142, pooled phase I): 1
- Euphoric mood, subjects experiencing drug-related TEAE ([1]; of n = 142, pooled phase I): 2
- Eye disorders, subjects experiencing drug-related TEAE ([1]; of n = 142, pooled phase I): 20
- Eye pain, subjects experiencing drug-related TEAE ([1]; of n = 142, pooled phase I): 1
- Feeling of relaxation, subjects experiencing drug-related TEAE ([1]; of n = 142, pooled phase I): 3
- Gastrointestinal disorders, subjects experiencing drug-related TEAE ([1]; of n = 142, pooled phase I): 4
- General disorders and administration site conditions, subjects experiencing drug-related TEAE ([1]; of n = 142, pooled phase I): 1
- Headache, subjects experiencing drug-related TEAE ([1]; of n = 142, pooled phase I): 6
- Hypervigilance, subjects experiencing drug-related TEAE ([1]; of n = 142, pooled phase I): 1
- Muscle spasms, subjects experiencing drug-related TEAE ([1]; of n = 142, pooled phase I): 1
- Musculoskeletal and connective tissue disorders, subjects experiencing drug-related TEAE ([1]; of n = 142, pooled phase I): 1
- Nausea, subjects experiencing drug-related TEAE ([1]; of n = 142, pooled phase I): 3
- Nervous system disorders, subjects experiencing drug-related TEAE ([1]; of n = 142, pooled phase I): 18
- Nervousness, subjects experiencing drug-related TEAE ([1]; of n = 142, pooled phase I): 1
- Oropharyngeal pain, subjects experiencing drug-related TEAE ([1]; of n = 142, pooled phase I): 1
- Paraesthesia oral, subjects experiencing drug-related TEAE ([1]; of n = 142, pooled phase I): 1
- Photophobia, subjects experiencing drug-related TEAE ([1]; of n = 142, pooled phase I): 2
- Photopsia, subjects experiencing drug-related TEAE ([1]; of n = 142, pooled phase I): 1
- Pigmentation disorder, subjects experiencing drug-related TEAE ([1]; of n = 142, pooled phase I): 1
- Psychiatric disorders, subjects experiencing drug-related TEAE ([1]; of n = 142, pooled phase I): 2
- Respiratory, thoracic and mediastinal disorders, subjects experiencing drug-related TEAE ([1]; of n = 142, pooled phase I): 1
- Sensation of foreign body, subjects experiencing drug-related TEAE ([1]; of n = 142, pooled phase I): 1
- Skin and subcutaneous tissue disorders, subjects experiencing drug-related TEAE ([1]; of n = 142, pooled phase I): 1
- Somnolence, subjects experiencing drug-related TEAE ([1]; of n = 142, pooled phase I): 1
- Vision blurred, subjects experiencing drug-related TEAE ([1]; of n = 142, pooled phase I): 7
- Visual acuity reduced, subjects experiencing drug-related TEAE ([1]; of n = 142, pooled phase I): 1
- Visual impairment, subjects experiencing drug-related TEAE ([1]; of n = 142, pooled phase I): 13
- Vomiting, subjects experiencing drug-related TEAE ([1]; of n = 142, pooled phase I): 1
- Subjects with both eye disorders and nervous system disorders ([1]; of the 27 subjects with TEAE of interest): 41%
- Subjects with drug-related TEAEs of interest (eye disorders and nervous system disorders), number ([1]; out of 142 subjects): 27
- Subjects with drug-related TEAEs, number ([1]; out of 142 subjects): 31
- Incidence of non drug-related infections and infestations, active treatment arms ([1]; vs. 0% placebo, p=0.13 (two-sided Fisher's exact test)): 10.5%
- Slope of linear regression, DBS concentration vs. plasma concentration [2]: 0.605
- Terminal half-life [3]: > 20 days
- Enzyme catalyzing oxidative metabolism (CYP3A4): predominantly catalyzed by CYP3A4
- Venous plasma–DBS scaling factor, population estimate (%RSE) ([4]; DBS concentration as % of venous plasma concentration, DBS from 12 subjects): 61.8 (2.9) %
- Vc/F, population estimate (%RSE) ([4]; central volume of distribution, oral, 75 kg adult, n = 142): 52.4 (3.4) L
- Maximum difference in MTT between the lowest and the highest dose ([4]; dose range 1–40 mg, 0.012–0.667 mg per kg body weight per day): 70%
- Q1/F, population estimate (%RSE) [4, 5]: 4.60 (5.1) L/h
- Q2/F, population estimate (%RSE) [4, 5]: 8.45 (2.9) L/h
- Dose on MTT, population estimate (%RSE) ([4]; linear, dose range 1–40 mg): 105 (22.3) % per mg /kg/day
- CL/F ([4]; male, human, in vivo, po): 21.5 mL/min
- MTT, population estimate (%RSE) ([4]; mean absorption transit time, oral, reference LSF solution, fasted, 75 kg adult, n = 142 healthy male subjects): 0.488 (3.5) h
- Dose on MTT, bootstrapping median (95% CI) ([4]; nonparametric bootstrap): 104.5 (62.9–154) % per mg /kg/day
- Venous plasma–DBS scaling factor, bootstrapping median (95% CI) ([4]; nonparametric bootstrap): 61.8 (58.2–65.2) %
- MTT, bootstrapping median (95% CI) ([4]; nonparametric bootstrap, 860 successful runs of 1,000, 75 kg adult): 0.489 (0.456–0.521) h
- CL/F, bootstrapping median (95% CI) [4, 6]: 1.29 (1.18–1.40) L/h
- Q1/F, bootstrapping median (95% CI) [4, 6]: 4.60 (4.14–5.04) L/h
- Q2/F, bootstrapping median (95% CI) [4, 6]: 8.43 (7.97–8.87) L/h
- Vc/F, bootstrapping median (95% CI) [4, 6]: 52.4 (49.2–55.8) L
- Vp1 / F, bootstrapping median (95% CI) [4, 6]: 45.1 (38.0–53.4) L
- Vp2/F, bootstrapping median (95% CI) [4, 6]: 647 (592–707) L
- Dose proportionality of exposure ([4]; present study population, 1–40 mg): dose-proportional
- Food intake on MTT, population estimate (%RSE) ([4]; reference: fasted state): 114 (22.6) %
- Reduction in F when the dose was given together with food ([4]; reference: fasted state): 24.4%
- Food intake on MTT, bootstrapping median (95% CI) ([4]; reference: fasted state, nonparametric bootstrap): 114.7 (69.0–168) %
- Vp1 / F, population estimate (%RSE) ([4]; volume of distribution of peripheral compartment 1, oral, 75 kg adult, n = 142): 44.4 (8.7) L
- Vp2/F, population estimate (%RSE) ([4]; volume of distribution of peripheral compartment 2, oral, 75 kg adult, n = 142): 647 (4.5) L
